What was measured:
Format in all cases: cell-based
HEK293 cells [1] = assay: Preliminary screening as DNA vectors, GFP transfection of HEK293 cells; conditions: HEK293 cells; lipid/DOPE liposome with 75 ng plasmid DNA (psin-EGFP-IRES-Puro); number of cells expressing GFP divided by total number of nuclei (Hoechst)
Summary of the method: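 HEK293 cells in DMEM/10% FBS transfected with 75 ng EGFP plasmid per well complexed with amino lipid/DOPE liposomes in pH 5.6 sodium acetate. Hoechst nuclear stain added 20-24 h post-transfection, then cells cultured another 20-24 h. Confocal imaging gives GFP-positive cells as % of total nuclei.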

Hela cells [2] = assay: Transfection of Hela cell line, mRNA vectors; conditions: 50 ng EGFP mRNA per well
Method: (§1) Cell line: Hela cells (ATCC 35241)
(§2) Medium: DMEM supplemented with 10% fetal bovine serum (Invitrogen)
(§3) Screening: cell transfection on 96-well plates
Detection (readout): percentage of the number of GFP fluorescent cells relative to the total number of cells (the total number of cells was determined using nucleus dye Hoechst). A commercially available liposome transfection reagent Lipofectamine2000 (Invitrogen) was used as the positive control group, according to the manufacturer's instructions.
Method: the experimental method was basically the same with Example 4, and the mass of EGFP mRNA for transfection was 50 ng per well.

Hela cells [3] = assay: Transfection of Hela cell line, DNA vectors; conditions: 75 ng plasmid DNA, GFP cells / total cells
Method: 1. The compound (0.01 mmol) prepared in Example 1 was dissolved in 1 mL of anhydrous ethanol. After ultrasonically dissolved, 10 μL of the resultant amino lipid solution in ethanol was taken and mixed with 5 μL of DOPE solution in ethanol (0.01 m), and then to the obtained mixture was added 35 μL of 0.2M sodium acetate buffer (pH 5.6), and 50 μL of liposome solution was prepared by vortex at a constant rotating speed for 30 s. 4 μL was taken from the 50 μL liposome solution and added to 46 μL of 0.02M sodium acetate buffer (pH 5.6), and the final liposome solution was formed by vortex at a constant rotating speed for 30 s. 5 μL was taken from the final liposome solution and mixed with 75 ng plasmid DNA (psin-EGFP-IRES-Puro, Clontech) dissolved in 5 μL of 0.02 M sodium acetate buffer, and was allowed to stay at room temperature for 30 min to form a lipid/DNA transfection complex.
2. 10 μL of the lipid/DNA transfection complex was incubated at room temperature for 30 min, followed by addition of 90 μL of fresh resuspended cells (3-5×10^4 cells) and mixing with a pipette. 100 μL of cells+lipid/DNA complex was transferred to separate wells of a 96-well culture plate immediately, and placed in an incubator containing 5% CO2 at 37° C.
3. Hoechst33258 (Invitrogen) was added at a final concentration of 0.2 μg/mL to the cells 20 to 24 hours after initial cell transfection, and cultured in darkness at 37° C. for 15 min. Afterwards, the cells were washed once with a PBS solution, and then added with medium for culture for 20 to 24 h.
4. The cells were placed in a high-throughput confocal microscope (Molecular Devices ImageXpress), and four visual fields of the image of the cells were captured for each well, and images at three laser wavelengths were captured for each sample: bright field images of cells (FIG. 2(a) and FIG. 2(b)), Hoechst-staining images showing total nuclei (FIG. 2(c) and FIG. 2(d)) and GFP images showing success in transfection with the plasmid DNA and the expression of GFP (FIG. 2(e) and FIG. 2(f)). MetaXpress software was used to separately count the cells in the Hoechst-staining images and GFP images, and then the number of cells expressing GFP was divided by the total number of nuclei to give the absolute cell transfection efficiency. The absolute transfection efficiency was calculated as follows: […]
as §1, §2, §3
Detection (readout): percentage of the number of GFP fluorescent cells relative to the total number of cells (the total number of cells was determined using nucleus dye Hoechst). Lipofectamine2000 (Invitrogen) was used as the positive control, according to the manufacturer's instructions.
Method: the experimental method was basically the same with Example 4.

HEK293 cells [4] = assay: Preliminary screening as mRNA vectors, EGFP mRNA transfection of HEK293 cells; conditions: HEK293 cells, 96-well plates, EGFP mRNA 50 ng per well; percentage of GFP fluorescent cells relative to total number of cells (Hoechst)
Summary of the method: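 HEK293 cells in DMEM plus 10% FBS transfected in 96-well format with 50 ng EGFP mRNA per well; Lipofectamine2000 served as positive control. Read-out is the percentage of GFP-fluorescent cells among total cells, counted by Hoechst nuclear stain.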

Row | SMILES | Absolute DNA transfection efficiency in HEK293 cells (HEK293 cells [1]) | Absolute mRNA transfection efficiency in Hela cells (Hela cells [2]) | Absolute DNA transfection efficiency in Hela cells (Hela cells [3]) | Absolute mRNA transfection efficiency in HEK293 cells (HEK293 cells [4])
1 | CCCCCCCCCCCCCCCCSc1nc(NCCN2CCCCC2)nc(SCCCCCCCCC)n1 [Compound S9S16D4] | 12.2% | 6.2% | 6.2% | 1.2%
2 | CCCCCCCCCCCCCCCCSc1nc(NCCN(CC)CC)nc(SCCCCCCCCC)n1 [Compound S9S16D7] | 8.4% | 4.2% | 4.2% | 1.8%
3 | CCCCCCCCCCCCCCSc1nc(NCCN2CCCCC2)nc(SCCCCCCCCC)n1 [Compound S9S14D4] | 7.2% | 3.6% | 3.6% | 0.7%
4 | CCCCCCCCCCCSc1nc(NCCN(CC)CC)nc(SCCCCCCCC)n1 [Compound S8S11D7] |  | 5.7% | 5.7% | 
5 | CCCCCCCCCCCSc1nc(NCCN2CCOCC2)nc(SCCCCCCC)n1 [Compound S7S11D2] |  | 13.6% | 13.6% | 
6 | CCCCCCCCCCCSc1nc(NCCCCCCC)nc(NCCN(CC)CC)n1 [Compound S11N7D7] |  | 5.8% | 5.8% | 
7 | CCCCCCCCCCCSc1nc(NCCN2CCCCC2)nc(SCCCCCCC)n1 [Compound S7S11D4] |  | 7.9% | 7.9% | 
8 | CCCCCCCCCNc1nc(NCCN(C)C)nc(SCCCCCCCCC)n1 [Compound S9N9D1] |  | 17.7% | 17.7% | 
9 | CCCCCCCCCCCCCNc1nc(NCCN(CC)CC)nc(SCCCCCCCC)n1 [Compound S8N13D7] |  | 4.5% | 4.5% | 
10 | CCCCCCCCCCCCSc1nc(NCCN2CCOCC2)nc(SCCCCCCC)n1 [Compound S7S12D2] |  | 9.2% | 9.2% | 
11 | CCCCCCCCCCCNc1nc(NCCN(CC)CC)nc(SCCCCCCCC)n1 [Compound S8N11D7] |  | 12.3% | 12.2% | 
12 | CCCCCCCCCCCNc1nc(NCCN2CCCCC2)nc(SCCCCCCCCC)n1 [Compound S9N11D4] |  | 4.4% | 4.4% | 
13 | CCCCCCCCCCCNc1nc(NCCN2CCOCC2)nc(SCCCCCCCCC)n1 [Compound S9N11D2] |  | 8.2% | 8.2% | 
14 | CCCCCCCCCCCCSc1nc(NCCN2CCCCC2)nc(SCCCCCCCC)n1 [Compound S8S12D4] |  | 5.4% | 5.4% | 
15 | CCCCCCCCCCCCSc1nc(NCCN2CCCCC2)nc(SCCCCCCC)n1 [Compound S7S12D4] |  | 4.7% | 4.7% | 
16 | CCCCCCCCCCCNc1nc(NCCN2CCCCC2)nc(SCCCCCCCC)n1 [Compound S8N11D4] |  | 7.6% | 7.6% | 
17 | CCCCCCCCCCCSc1nc(NCCN2CCCCC2)nc(SCCCCCCCC)n1 [Compound S8S11D4] |  | 4.5% | 4.5% | 
18 | CCCCCCCCCCCCSc1nc(NCCN(C)C)nc(SCCCCCCC)n1 [Compound S7S12D1] |  | 4.1% | 4.2% | 
19 | CCCCCCCCCCCSc1nc(NCCCCCCC)nc(NCCN(C)C)n1 [Compound S11N7D1] |  | 13.9% | 13.9% | 

Row | SMILES | Absolute DNA transfection efficiency in HEK293 cells (HEK293 cells [1]) | Absolute mRNA transfection efficiency in Hela cells (Hela cells [2]) | Absolute DNA transfection efficiency in Hela cells (Hela cells [3]) | Absolute mRNA transfection efficiency in HEK293 cells (HEK293 cells [4])
20 | CCCCCCCCCCCCNc1nc(NCCN2CCCCC2)nc(SCCCCCCCCC)n1 [Compound S9N12D4] |  | 4.1% | 4.1% | 
21 | CCCCCCCCCCCCNc1nc(NCCN(CC)CC)nc(SCCCCCCCC)n1 [Compound S8N12D7] |  | 4.7% | 4.7% | 
22 | CCCCCCCCCCCCSc1nc(NCCN2CCOCC2)nc(SCCCCCCCC)n1 [Compound S8S12D2] |  | 8.7% | 8.7% | 
23 | CCCCCCCCCCCCSc1nc(NCCN(CC)CC)nc(SCCCCCCC)n1 [Compound S7S12D7] |  | 3.5% | 3.5% | 
24 | CCCCCCCCCCCSc1nc(NCCCCCCCCC)nc(NCCN2CCCCC2)n1 [Compound S11N9D4] |  | 0.5% | 0.5% | 
25 | CCCCCCCCCCCCCNc1nc(NCCN2CCCCC2)nc(SCCCCCCCC)n1 [Compound S8N13D4] |  | 1.8% | 1.8% | 
26 | CCCCCCCCCCCSc1nc(NCCN2CCOCC2)nc(SCCCCCCCC)n1 [Compound S8S11D2] |  | 8.6% | 8.9% | 
27 | CCCCCCCCCCCSc1nc(NCCCCCCCCC)nc(NCCN2CCOCC2)n1 [Compound S11N9D2] |  | 6.8% | 6.8% | 
28 | CCCCCCCCCCCSc1nc(NCCN(CC)CC)nc(SCCCCCCC)n1 [Compound S7S11D7] |  | 5.2% | 5.2% | 
29 | CCCCCCCCCNc1nc(NCCN2CCOCC2)nc(SCCCCCCCCC)n1 [Compound S9N9D2] |  | 12.0% | 12.0% | 
30 | CCCCCCCCCCCCCNc1nc(NCCN(C)C)nc(SCCCCCCCC)n1 [Compound S8N13D1] |  | 9.7% | 9.7% | 
31 | CCCCCCCCCCCCCNc1nc(NCCN2CCOCC2)nc(SCCCCCCCC)n1 [Compound S8N13D2] |  | 9.8% | 9.83% | 
32 | CCCCCCCCCCCCSc1nc(NCCN(C)C)nc(SCCCCCCCC)n1 [Compound S8S12D1] |  | 5.4% | 5.4% | 
33 | CCCCCCCCCCCCNc1nc(NCCN(C)C)nc(SCCCCCCCC)n1 [Compound S8N12D1] |  | 11.5% | 11.5% | 
34 | CCCCCCCCCCCNc1nc(NCCN(C)C)nc(SCCCCCCCCC)n1 [Compound S9N11D1] |  | 17.7% | 17.7% | 
35 | CCCCCCCCCCCSc1nc(NCCCCCCC)nc(NCCN2CCCCC2)n1 [Compound S11N7D4] |  | 2.3% | 2.3% | 
36 | CCCCCCCCCCCSc1nc(NCCCCCCCC)nc(NCCN2CCCCC2)n1 [Compound S11N8D4] |  | 2.9% | 2.9% | 
37 | CCCCCCCCCCCCNc1nc(NCCN2CCOCC2)nc(SCCCCCCCCC)n1 [Compound S9N12D2] |  | 6.5% | 6.5% | 

From US20230123334A1, “AMINO LIPID COMPOUND, PREPARATION METHOD THEREFOR, AND APPLICATION THEREOF” (SHENZHEN SHENXIN BIOTECHNOLOGY CO., LTD., priority 2020, published 2023)
